Test system: AAV
Experiment: Serum AAV IgG, ELISA
Type: in vivo, C57BL/6 female mice
Conditions: Example 12, FIG. 24B
Description: Same serum samples from Example 3 were also tested for AAV IgG measured by ELISA along the same lines as IgM with the exception of goat anti-mouse IgG specific-HRP being used.

C=CC(=O)N1CCC[C@@H](n2nc(-c3ccc(Oc4ccccc4)cc3)c3c(N)ncnc32)C1 [ibrutinib]
animals converting to AAV IgG-positive by d22: 10/10

— patent publication US20190142974A1, “METHODS AND COMPOSITIONS FOR ATTENUATING ANTI-VIRAL TRANSFER VECTOR IGM RESPONSES” (Selecta Biosciences, Inc., priority 2017, published 2019)
